According to patent publication US20260193180A1, “AUTOPHAGY INDUCING COMPOUNDS AND USES THEREOF” (SAMSARA THERAPEUTICS INC., priority 2022, published 2026):
Structures can show the parent of a compound that is named as a salt.

System: Human osteosarcoma U2OS cells
Assay: Acidic vesicle formation (lysosome/autolysosome staining, LysoView 633 / LysoTracker Deep Red), stimulation of autophagy
Assay type: cell-based
Conditions: 24 hours; for activation at 10 µM: read-out: increase in acidic vesicle formation over the DMSO-treated control; for activation at 0.8 µM: read-out: Activity (percentage increase in acidic vesicle formation over the DMSO-treated control)
Experimental: Lysosomes play a fundamental role in the autophagic pathway by fusing with autophagosomes and creating ‘autolysosomes’ in order to digest their contents. Stimulation of lysosome and autolysosome formation by a compound is indicative of a stimulation of autophagy. The ability of compounds to stimulate lysosome and autolysosome formation, and thus autophagy, in live cells was assessed via fluorescent microscopy using various fluorescent stains for labelling and tracking acidic organelles (including lysosomes and autolysosomes) such as: LysoView™ 650 (70059 and 70059-T, Biotium), LysoView™633 (70058 and 70058-T, Biotium) and LysoTracker™ Deep Red (L12492, ThermoFisher Scientific). The cellular phenotype was quantitatively assessed for the induction of acidic vesicle formation and compared to a non-treated control, thus providing a measure of the ability of the compound under investigation to stimulate autophagy.
Representative procedure using LysoView™633 dye or LysoTracker™ Deep Red dye: Human osteosarcoma U2OS cells (40,000 cells/well) were seeded in a 24 well glass bottom plate (Sensoplate, Greiner Bio-One) and were incubated overnight in a humidified atmosphere at 37° C. and 5% CO2. Cells were grown in DMEM (Gibco) supplemented with 10% Fetal Bovine Serum (FBS) and 100 units/ml penicillin and 100 μg/ml streptomycin (Invitrogen). After the attachment period, cells were treated with different compounds of interest (at various concentrations in DMSO) or DMSO (non-treated control) in cell culture medium and were incubated for 24 hours. Compound-containing medium was removed and cells were incubated with pre-warmed cell culture medium containing 1× LysoView™ 633 (70058 and 70058-T, Biotium) or 50 nM LysoTracker™ Deep Red (L12492, ThermoFisher Scientific) for 45 minutes at 37° C. Finally, cell nuclei were stained for 10 minutes using Hoechst 33342 (1 μg/mL) and then the medium was replaced with fresh medium. The 24 well plate was then fitted into a heated stage on the microscope and cells maintained at 37° C. Images were captured using appropriate filter set for Cy5 and DAPI detection with the EVOS M7000 Microscope (ThermoFisher Scientific). The cellular phenotype was visually assessed for the induction of acidic vesicle formation relative to the non-treated control; multiple images were acquired and analysed using ImageJ or Cell Profiler.

CCOc1ccc(C(F)(F)F)cc1CN1CCN[C@@H](C)C1 [Compound 1, (S)-1-(2-ethoxy-5-(trifluoromethyl)benzyl)-3-methylpiperazine hydrochloride]
activation at 10 µM: ≥ 25%

CCOc1ccc(C(F)(F)F)cc1CN1CC[C@@H](CN)C1 [Compound 2, (S)-(1-(2-ethoxy-5-(trifluoromethyl)benzyl)pyrrolidin-3-yl)methanamine hydrochloride]
activation at 0.8 µM: 10 to 30%
activation at 10 µM: ≥ 25%

CCCOc1ccc(Cl)cc1CN1CC[C@@H](CN)C1 [Compound 3, (S)-(1-(5-chloro-2-propoxybenzyl)pyrrolidin-3-yl)methanamine hydrochloride]
activation at 0.8 µM: 30 to 50%
activation at 10 µM: ≥ 25%

NC[C@@H]1CCN(Cc2cc(Cl)ccc2OCC2CC2)C1 [Compound 4, (S)-(1-(5-chloro-2-(cyclopropylmethoxy)benzyl)pyrrolidin-3-yl)methanamine hydrochloride]
activation at 0.8 µM: 30 to 50%
activation at 10 µM: ≥ 25%

CCOc1cc(Cl)c(Cl)cc1CN1CC[C@@H](CN)C1 [Compound 5, (S)-(1-(4,5-dichloro-2-ethoxybenzyl)pyrrolidin-3-yl)methanamine hydrochloride]
activation at 0.8 µM: 30 to 50%
activation at 10 µM: ≥ 25%

NC[C@@H]1CCN(Cc2cc(Cl)c(Cl)cc2OCC2CC2)C1 [Compound 6, (S)-(1-(4,5-dichloro-2-(cyclopropylmethoxy)benzyl)pyrrolidin-3-yl)methanamine hydrochloride]
activation at 0.8 µM: 50 to 100%
activation at 10 µM: ≥ 25%

CCOc1ccc(Cl)cc1CN1CCC[C@@H](CN)C1 [Compound 7, (S)-(1-(5-chloro-2-ethoxybenzyl)piperidin-3-yl)methanamine hydrochloride]
activation at 0.8 µM: 30 to 50%
activation at 10 µM: ≥ 25%

NC[C@@H]1CCCN(Cc2cc(Cl)ccc2OCC2CC2)C1 [Compound 8, (S)-(1-(5-chloro-2-(cyclopropylmethoxy)benzyl)piperidin-3-yl)methanamine hydrochloride]
activation at 0.8 µM: 10 to 30%
activation at 10 µM: ≥ 25%

CCOc1ccc(Cl)cc1CN1CCN(CC)CC1 [Compound 10, 1-(5-chloro-2-ethoxybenzyl)-4-ethylpiperazine]
activation at 0.8 µM: 10 to 30%
activation at 10 µM: ≥ 25%

CCOc1ccc(Cl)cc1CN1CCC(N(C)C)CC1 [Compound 11, 1-(5-chloro-2-ethoxybenzyl)-N,N-dimethylpiperidin-4-amine]
activation at 0.8 µM: 10 to 30%
activation at 10 µM: ≥ 25%

CCOc1ccc(Cl)cc1CN1CCC[C@H]1CN [Compound 13, (S)-(1-(5-chloro-2-ethoxybenzyl)pyrrolidin-2-yl)methanamine hydrochloride]
activation at 10 µM: ≥ 25%

CCOc1ccc(Cl)cc1CN1CCC[C@@H]1CN [Compound 14, (R)-(1-(5-chloro-2-ethoxybenzyl)pyrrolidin-2-yl)methanamine hydrochloride]
activation at 10 µM: ≥ 25%

CCOc1ccc(Cl)cc1CN1CCC[C@@H](N)C1 [Compound 15, (R)-1-(5-chloro-2-ethoxybenzyl)piperidin-3-amine hydrochloride]
activation at 0.8 µM: 10 to 30%
activation at 10 µM: ≥ 25%

CCOc1ccc(Cl)cc1CN1CCC[C@H](N)C1 [Compound 16, (S)-1-(5-chloro-2-ethoxybenzyl)piperidin-3-amine hydrochloride]
activation at 10 µM: ≥ 25%

CCOc1ccc(Cl)cc1CN1CC(CN)C1 [Compound 17, (1-(5-chloro-2-ethoxybenzyl)azetidin-3-yl)methanamine hydrochloride]
activation at 0.8 µM: 50 to 100%
activation at 10 µM: ≥ 25%

CCOc1ccc(Cl)cc1CN1CCN(C(C)C)CC1 [Compound 18, 1-(5-chloro-2-ethoxybenzyl)-4-isopropylpiperazine]
activation at 0.8 µM: 10 to 30%
activation at 10 µM: ≥ 25%

CCOc1ccc(Cl)cc1CCN1CCC[C@H](N)C1 [Compound 19, (S)-1-(5-chloro-2-ethoxyphenethyl)piperidin-3-amine hydrochloride]
activation at 10 µM: ≥ 25%

NC[C@@H]1CCN(CCc2ccc(OCC3CC3)c(Cl)c2)C1 [Compound 20, (S)-(1-(3-chloro-4-(cyclopropylmethoxy)phenethyl)pyrrolidin-3-yl)methanamine hydrochloride]
activation at 10 µM: ≥ 25%

CCOc1cc(F)c(F)cc1CN1CC[C@H](CN)C1 [Compound 21, (R)-(1-(2-ethoxy-4,5-difluorobenzyl)pyrrolidin-3-yl)methanamine hydrochloride]
activation at 10 µM: ≥ 25%

CCOc1cc(F)c(F)cc1CN1CC[C@@H](CN)C1 [Compound 22, (S)-(1-(2-ethoxy-4,5-difluorobenzyl)pyrrolidin-3-yl)methanamine hydrochloride]
activation at 10 µM: ≥ 25%

NC[C@H]1CCN(Cc2cc(Cl)ccc2OCCO)C1 [Compound 24, (R)-2-(2-((3-(aminomethyl)pyrrolidin-1-yl)methyl)-4-chlorophenoxy)ethan-1-ol hydrochloride]
activation at 10 µM: ≥ 25%

NC[C@@H]1CCN(Cc2cc(Cl)ccc2OCCO)C1 [Compound 25, (S)-2-(2-((3-(aminomethyl)pyrrolidin-1-yl)methyl)-4-chlorophenoxy)ethan-1-ol hydrochloride]
activation at 0.8 µM: 30 to 50%
activation at 10 µM: ≥ 25%

CCCCOc1ccc(Cl)cc1CN1CC[C@H](CN)C1 [Compound 26, (R)-(1-(2-butoxy-5-chlorobenzyl)pyrrolidin-3-yl)methanamine hydrochloride]
activation at 0.8 µM: > 100%
activation at 10 µM: ≥ 25%

CCCCOc1ccc(Cl)cc1CN1CC[C@@H](CN)C1 [Compound 27, (S)-(1-(2-butoxy-5-chlorobenzyl)pyrrolidin-3-yl)methanamine hydrochloride]
activation at 0.8 µM: > 100%
activation at 10 µM: ≥ 25%

CCOc1ccc(Cl)cc1CN1CCO[C@@H](CN)C1 [Compound 28, (S)-(4-(5-chloro-2-ethoxybenzyl)morpholin-2-yl)methanamine hydrochloride]
activation at 0.8 µM: 10 to 30%
activation at 10 µM: ≥ 25%

CCOc1ccc(Cl)cc1CN1CCO[C@H](CN)C1 [Compound 29, (R)-(4-(5-chloro-2-ethoxybenzyl)morpholin-2-yl)methanamine hydrochloride]
activation at 0.8 µM: 50 to 100%
activation at 10 µM: ≥ 25%

CCOc1cc(Cl)cc(CN2CC[C@@H](CN)C2)c1 [Compound 31, (S)-(1-(3-chloro-5-ethoxybenzyl)pyrrolidin-3-yl)methanamine hydrochloride]
activation at 0.8 µM: > 100%
activation at 10 µM: ≥ 25%

CCCOc1ccc(OC(F)(F)F)cc1CN1CCN[C@@H](C)C1 [Compound 32, (S)-3-methyl-1-(2-propoxy-5-(trifluoromethoxy)benzyl) piperazine hydrochloride]
activation at 0.8 µM: 50 to 100%
activation at 10 µM: ≥ 25%

NC[C@@H]1CCN(CCc2cc(Cl)cc3c2OCO3)C1 [Compound 33, (S)-(1-(2-(6-chlorobenzo[d][1,3]dioxol-4-yl)ethyl)pyrrolidin-3-yl)methanamine hydrochloride]
activation at 10 µM: ≥ 25%

CCOc1ccc(Cl)c(Cl)c1CCN1CC[C@@H](CN)C1 [Compound 34, (S)-(1-(2,3-dichloro-6-ethoxyphenethyl)pyrrolidin-3-yl)methanamine hydrochloride]
activation at 10 µM: ≥ 25%

CCOc1cc(Cl)c(Cl)cc1CCN1CC[C@@H](CN)C1 [Compound 35, (S)-(1-(4,5-dichloro-2-ethoxyphenethyl)pyrrolidin-3-yl)methanamine hydrochloride]
activation at 10 µM: ≥ 25%

CCOc1ccc(C(F)(F)F)cc1CN1CCN[C@H](C)C1 [Compound 36, (R)-1-(2-ethoxy-5-(trifluoromethyl)benzyl)-3-methylpiperazine hydrochloride]
activation at 0.8 µM: 10 to 30%
activation at 10 µM: ≥ 25%

CCOc1cc(Cl)c(Cl)cc1CN1CCN[C@@H](C)C1 [Compound 37, (S)-1-(4,5-dichloro-2-ethoxybenzyl)-3-methylpiperazine hydrochloride]
activation at 0.8 µM: 10 to 30%
activation at 10 µM: ≥ 25%

CCOc1ccc(OC(F)(F)F)cc1CN1CCN[C@@H](C)C1 [Compound 38, (S)-1-(2-ethoxy-5-(trifluoromethoxy)benzyl)-3-methylpiperazine hydrochloride]
activation at 0.8 µM: 10 to 30%
activation at 10 µM: ≥ 25%

CCOc1ccc(CN2CCC(CN)C2)cc1Cl (centres unmarked) [Compound 39, (1-(3-chloro-4-ethoxybenzyl)pyrrolidin-3-yl)methanamine hydrochloride]
activation at 0.8 µM: 30 to 50%
activation at 10 µM: ≥ 25%

CCOc1ccc(Cl)cc1CN1CCNCC1 [Compound 40, 1-(5-chloro-2-ethoxybenzyl)piperazine hydrochloride]
activation at 0.8 µM: 10 to 30%
activation at 10 µM: ≥ 25%

CCOc1ccc(Cl)cc1CN1CCOC(CN)C1 (centres unmarked) [Compound 41, (4-(5-chloro-2-ethoxybenzyl)morpholin-2-yl)methanamine hydrochloride]
activation at 0.8 µM: 10 to 30%
activation at 10 µM: ≥ 25%
